Test results from patent US10793580B2, “Substituted pyrazoloazepin-8-ones and their use as phosphodiesterase inhibitors” (LEO Pharma A/S, priority 2016, dated 2020).

What follows are compounds tested against human PDE4D catalytic domain (Homo sapiens (Human), UniProt Q08499) (assay: PDE4 Assay (TR-FRET, FAM-cAMP cleavage)). Details: Table 16, Examples 277-296; read-out: PDE4 IC50 range.
Format: biochemical
Outline: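 PDE4D catalytic domain (S380-L740) incubated briefly with unlabelled cAMP plus FAM-cAMP and titrated compound. Reaction stopped with binding buffer holding metal-ion nanoparticles that bind AMP phospho groups and Tb donor, and AMP formation read by TR-FRET. IC50 versus controls, reported as ranges (nM).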

Sequence of human PDE4D catalytic domain (Q08499 380-740): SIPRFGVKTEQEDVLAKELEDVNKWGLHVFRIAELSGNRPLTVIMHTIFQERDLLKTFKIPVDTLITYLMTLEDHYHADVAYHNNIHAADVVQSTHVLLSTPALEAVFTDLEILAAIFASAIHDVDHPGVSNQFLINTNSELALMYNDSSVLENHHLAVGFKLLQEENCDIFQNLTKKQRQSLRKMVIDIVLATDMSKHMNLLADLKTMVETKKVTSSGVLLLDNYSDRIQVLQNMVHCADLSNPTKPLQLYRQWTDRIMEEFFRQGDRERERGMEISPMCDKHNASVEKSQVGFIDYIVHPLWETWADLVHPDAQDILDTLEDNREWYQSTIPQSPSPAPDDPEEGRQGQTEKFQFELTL

CCn1nc(C[C@@H](C)COC(=O)c2coc(C)n2)c2c1C(=O)NCC1(CCOCC1)C2 [Example 281, [(2R)-3-(1-ethyl-8-oxo-spiro[6,7-dihydro-4H-pyrazolo[3,4-c]azepine-5,4′-tetrahydropyran]-3-yl)-2-methyl-propyl] 2-methyloxazole-4-carboxylate] and CCn1nc(C[C@@H](C)COC(=O)C2CCN(C(=O)N(C)C)CC2)c2c1C(=O)NCC1(CCOCC1)C2 [Example 296, [(2R)-3-(1-ethyl-8-oxo-spiro[6,7-dihydro-4H-pyrazolo[3,4-c]azepine-5,4′-tetrahydropyran]-3-yl)-2-methyl-propyl] 1-(dimethylcarbamoyl)piperidine-4-carboxylate] cannot be ordered by IC50: < 100 nM for the first, < 100 nM for the second.

Same assay, conditions: human PDE4D catalytic domain (UniProt Q08499 [S380-L740]); 50% inhibition of substrate cleavage; read-out: PDE4 IC50 range

CCn1nc(CCCCOC(=O)c2cscn2)c2c1C(=O)NCC1(CCOCC1)C2 [Example 269, 4-(1-ethyl-8-oxo-spiro[6,7-dihydro-4H-pyrazolo[3,4-c]azepine-5,4′-tetrahydropyran]-3-yl)butyl thiazole-4-carboxylate] and CCn1nc(CCCOC(=O)c2ccns2)c2c1C(=O)NCC1(CCOCC1)C2 [Example 242, 3-(1-ethyl-8-oxo-spiro[6,7-dihydro-4H-pyrazolo[3,4-c]azepine-5,4′-tetrahydropyran]-3-yl)propyl isothiazole-5-carboxylate] cannot be ordered by IC50: < 100 nM for the first, < 100 nM for the second.

CCn1nc(CC(C)(C)COC(=O)c2cccc(F)c2)c2c1C(=O)NCC1(CCOCC1)C2 [Example 191, [3-(1-ethyl-8-oxo-spiro[6,7-dihydro-4H-pyrazolo[3,4-c]azepine-5,4′-tetrahydropyran]-3-yl)-2,2-dimethyl-propyl] 3-fluorobenzoate] and CCn1nc(CC(C)(C)COC(=O)c2ccc(C(N)=O)cc2)c2c1C(=O)NCC1(CCOCC1)C2 [Example 218, [3-(1-ethyl-8-oxo-spiro[6,7-dihydro-4H-pyrazolo[3,4-c]azepine-5,4′-tetrahydropyran]-3-yl)-2,2-dimethyl-propyl] 4-carbamoylbenzoate] cannot be ordered by IC50: < 100 nM for the first, < 100 nM for the second.

CCn1nc(CCCOC(=O)c2cccc(C(=O)N3CCCC3)c2)c2c1C(=O)NCC1(CCOCC1)C2 [Example 116, 3-(1-ethyl-8-oxo-spiro[6,7-dihydro-4H-pyrazolo[3,4-c]azepine-5,4′-tetrahydropyran]-3-yl)propyl 3-(pyrrolidine-1-carbonyl)benzoate] and CCn1nc(CC(C)(C)COC(=O)c2cccc(C(=O)N3CCCC3)c2)c2c1C(=O)NCC1(CCOCC1)C2 [Example 230, [3-(1-ethyl-8-oxo-spiro[6,7-dihydro-4H-pyrazolo[3,4-c]azepine-5,4′-tetrahydro-pyran]-3-yl)-2,2-dimethyl-propyl] 3-(pyrrolidine-1-carbonyl)benzoate] cannot be ordered by IC50: < 100 nM for the first, < 100 nM for the second.

CCn1nc(CCCOC(=O)c2ccc(F)c(F)c2)c2c1C(=O)NCC1(CCOCC1)C2 [Example 23, 3-(1-ethyl-8-oxo-spiro[6,7-dihydro-4H-pyrazolo[3,4-c]azepine-5,4′-tetrahydropyran]-3-yl)propyl 3,4-difluorobenzoate] and CCn1nc(CCCOC(=O)c2cc(OC)ccc2F)c2c1C(=O)NCC1(CCOCC1)C2 [Example 37, 3-(1-ethyl-8-oxo-spiro[6,7-dihydro-4H-pyrazolo[3,4-c]azepine-5,4′-tetrahydropyran]-3-yl)propyl 2-fluoro-5-methoxy-benzoate] cannot be ordered by IC50: < 100 nM for the first, < 100 nM for the second.

CCn1nc(CCCOC(=O)c2cccc(OC)c2Cl)c2c1C(=O)NCC1(CCOCC1)C2 [Example 57, 3-(1-ethyl-8-oxo-spiro[6,7-dihydro-4H-pyrazolo[3,4-c]azepine-5,4′-tetrahydropyran]-3-yl)propyl 2-chloro-3-methoxy-benzoate] and CCn1nc(CCCOC(=O)c2ccc(C(F)(F)F)cc2Cl)c2c1C(=O)NCC1(CCOCC1)C2 [Example 88, 3-(1-ethyl-8-oxo-spiro[6,7-dihydro-4H-pyrazolo[3,4-c]azepine-5,4′-tetrahydro-pyran]-3-yl)propyl 2-chloro-4-(trifluoromethyl)benzoate] cannot be ordered by IC50: < 100 nM for the first, < 100 nM for the second.

CCn1nc(CC(C)(C)COC(=O)c2ccc(S(=O)(=O)N3CCCC3)cc2)c2c1C(=O)NCC1(CCOCC1)C2 [Example 211, [3-(1-ethyl-8-oxo-spiro[6,7-dihydro-4H-pyrazolo[3,4-c]azepine-5,4′-tetrahydropyran]-3-yl)-2,2-dimethyl-propyl] 4-pyrrolidin-1-ylsulfonylbenzoate] and CCn1nc(CC(C)(C)COC(=O)c2ccc(S(=O)(=O)N3CCOCC3)cc2)c2c1C(=O)NCC1(CCOCC1)C2 [Example 213, [3-(1-ethyl-8-oxo-spiro[6,7-dihydro-4H-pyrazolo[3,4-c]azepine-5,4′-tetrahydropyran]-3-yl)-2,2-dimethyl-propyl] 4-morpholinosulfonylbenzoate] cannot be ordered by IC50: < 100 nM for the first, < 100 nM for the second.

CCn1nc(CCCOC(=O)c2ccc(C(=O)N3CCN(C)CC3)cc2)c2c1C(=O)NCC1(CCOCC1)C2 [Example 110, 3-(1-ethyl-8-oxo-spiro[6,7-dihydro-4H-pyrazolo[3,4-c]azepine-5,4′-tetrahydropyran]-3-yl)propyl 4-(4-methylpiperazine-1-carbonyl)benzoate] and CCn1nc(CC(C)(C)COC(=O)c2ccc(C(=O)N3CCCCC3)cc2)c2c1C(=O)NCC1(CCOCC1)C2 [Example 222, [3-(1-ethyl-8-oxo-spiro[6,7-dihydro-4H-pyrazolo[3,4-c]azepine-5,4′-tetrahydro-pyran]-3-yl)-2,2-dimethyl-propyl] 4-(piperidine-1-carbonyl)benzoate] cannot be ordered by IC50: < 100 nM for the first, < 100 nM for the second.

Compared with CCn1nc(C[C@@H](C)COC(=O)[C@H]2CC[C@H](O)CC2)c2c1C(=O)NCC1(CCOCC1)C2 [Example 146, [(2R)-3-(1-ethyl-8-oxo-spiro[6,7-dihydro-4H-pyrazolo[3,4-c]azepine-5,4′-tetrahydropyran]-3-yl)-2-methyl-propyl] 4-hydroxy-cyclohexanecarboxylate], CCn1nc(CCCOC(=O)C2CCN(C)CC2)c2c1C(=O)NCC1(CCOCC1)C2 [Example 256, 3-(1-ethyl-8-oxo-spiro[6,7-dihydro-4H-pyrazolo[3,4-c]azepine-5,4′-tetrahydropyran]-3-yl)propyl 1-methylpiperidine-4-carboxylate] is higher in IC50: < 100 nM for the first, 100 to 500 nM for the second.

CCn1nc(CC(C)(C)COC(=O)c2ccc(S(=O)(=O)N(C)Cc3ccccc3)cc2)c2c1C(=O)NCC1(CCOCC1)C2 [Example 214, [3-(1-ethyl-8-oxo-spiro[6,7-dihydro-4H-pyrazolo[3,4-c]azepine-5,4′-tetrahydropyran]-3-yl)-2,2-dimethyl-propyl] 4-[benzyl(methyl)sulfamoyl] benzoate] and CCn1nc(CC(C)(C)COC(=O)c2ccc(C(=O)NC)cc2)c2c1C(=O)NCC1(CCOCC1)C2 [Example 219, [3-(1-ethyl-8-oxo-spiro[6,7-dihydro-4H-pyrazolo[3,4-c]azepine-5,4′-tetrahydropyran]-3-yl)-2,2-dimethyl-propyl] 4-(methylcarbamoyl)benzoate] cannot be ordered by IC50: < 100 nM for the first, < 100 nM for the second.

CCn1nc(C[C@@H](C)COC(=O)c2cccc(S(=O)(=O)C(C)C)c2)c2c1C(=O)NCC1(CCOCC1)C2 [Example 159, [(2R)-3-(1-ethyl-8-oxo-spiro[6,7-dihydro-4H-pyrazolo[3,4-c]azepine-5,4′-tetrahydropyran]-3-yl)-2-methyl-propyl] 3-isopropylsulfonylbenzoate] and CCn1nc(C[C@@H](C)COC(=O)c2cccc(C)c2)c2c1C(=O)NCC1(CCOCC1)C2 [Example 142, [(2R)-3-(1-ethyl-8-oxo-spiro[6,7-dihydro-4H-pyrazolo[3,4-c]azepine-5,4′-tetrahydropyran]-3-yl)-2-methyl-propyl] 3-methylbenzoate] cannot be ordered by IC50: < 100 nM for the first, < 100 nM for the second.

CCn1nc(C[C@@H](C)COC(=O)c2ccccc2C)c2c1C(=O)NCC1(CCOCC1)C2 [Example 141, [(2R)-3-(1-ethyl-8-oxo-spiro[6,7-dihydro-4H-pyrazolo[3,4-c]azepine-5,4′-tetrahydropyran]-3-yl)-2-methyl-propyl] 2-methylbenzoate] and CCn1nc(C[C@@H](C)COC(=O)c2cccc(C(=O)N3CCOCC3)c2)c2c1C(=O)NCC1(CCOCC1)C2 [Example 183, [(2R)-3-(1-ethyl-8-oxo-spiro[6,7-dihydro-4H-pyrazolo[3,4-c]azepine-5,4′-tetrahydropyran]-3-yl)-2-methyl-propyl] 3-(morpholine-4-carbonyl)benzoate] cannot be ordered by IC50: < 100 nM for the first, < 100 nM for the second.

CCn1nc(CCCOC(=O)c2ccc(S(=O)(=O)CC)cc2)c2c1C(=O)NCC1(CCOCC1)C2 [Example 77, 3-(1-ethyl-8-oxo-spiro[6,7-dihydro-4H-pyrazolo[3,4-c]azepine-5,4′-tetrahydro-pyran]-3-yl)propyl 4-ethylsulfonylbenzoate] and CCn1nc(CCCOC(=O)c2cc(C(F)(F)F)ccc2Cl)c2c1C(=O)NCC1(CCOCC1)C2 [Example 91, 3-(1-ethyl-8-oxo-spiro[6,7-dihydro-4H-pyrazolo[3,4-c]azepine-5,4′-tetrahydro-pyran]-3-yl)propyl 2-chloro-5-(trifluoromethyl)benzoate] cannot be ordered by IC50: < 100 nM for the first, < 100 nM for the second.

CCn1nc(CC(C)(C)COC(=O)c2cccc(S(=O)(=O)N3CCOCC3)c2)c2c1C(=O)NCC1(CCOCC1)C2 [Example 212, [3-(1-ethyl-8-oxo-spiro[6,7-dihydro-4H-pyrazolo[3,4-c]azepine-5,4′-tetrahydropyran]-3-yl)-2,2-dimethyl-propyl] 3-morpholinosulfonylbenzoate] and CCn1nc(CC(C)(C)COC(=O)c2cccc(S(=O)(=O)N3CCN(C(C)=O)CC3)c2)c2c1C(=O)NCC1(CCOCC1)C2 [Example 215, [3-(1-ethyl-8-oxo-spiro[6,7-dihydro-4H-pyrazolo[3,4-c]azepine-5,4′-tetrahydropyran]-3-yl)-2,2-dimethyl-propyl] 3-(4-acetylpiperazin-1-yl)sulfonylbenzoate] cannot be ordered by IC50: < 100 nM for the first, < 100 nM for the second.
